From patent US20070026408A1, “Materials and methods for analysis of atp-binding cassette transporter gene expression” (priority 2003, published 2007)
Counter-ions that a name gives are not always drawn.

System: abcB11
Experiment: DT1 microarray drug screening, drug-treated HepG2: abcB11
Assay type: cell-based, human
Settings: HepG2, vinblastine sulfate 25 nM, 8 h, standard 24
Description: The labelled cDNA target preparation was thawed and the 150 μl added to 850 ul hybridisation buffer (500 mM sodium Phosphate pH 6.0, 1% SDS, 1% BSA, 1 mM EDTA) in a 1.5 ml microtube and heated at 95° C. for 10 min.

In the case of `CC[C@]1(O)C[C@@H]2CN(CCc3c([nH]c4ccccc34)[C@@](C(=O)OC)(c3cc4c(cc3OC)N(C)[C@H]3[C@@](O)(C(=O)OC)[C@H](OC(C)=O)[C@]5(CC)C=CCN6CC[C@]43[C@@H]65)C2)C1` [vin, vinblastine sulfate], the “relative level of abcB11 gene expression” value is reported as 9.053.
